For data set [1] the following is noted: CKD population; need for dose adjustment; cited from earlier work.
Data set [2] has as its system subtotally nephrectomized (SNx) rats. Description: Immunohistochemistry for cardiac collagen I. Type of data set: in vivo, rat. As to conditions: SNx rats vs vehicle-treated SNx; seven weeks treatment. An excerpt: (§1) Briefly, animals were anesthetized with 2.5% inhaled isoflurane, the right kidney was removed via subcapsular nephrectomy and infarction of approximately two thirds of the left kidney was achieved via selective ligation of two out of the three or four branches of the left renal artery. Sham surgery consisted of laparotomy and manipulation of both kidneys before wound closure. Rats were followed for eight weeks after surgery. […] All rats were housed in a stable environment and allowed free access to Reverse Osmosis water and standard rat chow.
Immunohistochemistry for fibrillar collagen type I (Southern Biotech, Birmingham, Ala.) was performed as previously described with the antibody used at a concentration of 1:400. Stained heart sections were scanned with the Aperio ScanScope system (Aperio, Vista, Calif.) and analysed with ImageScope (Aperio). Interstitial collagen I was determined as the proportional area of positive immunostaining in 10 randomly selected fields (×100 magnification).

Data set [3] has the same test system. Put plainly: Myocyte hypertrophy (H&E stained sections). The format is in vivo, rat. As to conditions: SNx rats vs vehicle-treated SNx; seven weeks treatment.
Excerpt: as §1
Cardiac myocyte hypertrophy was determined on haematoxylin and eosin (H&E) stained sections, as previously reported. Myocyte cross sectional area was determined on H&E stained sections as adapted from the methods described by Frustaci and colleagues.

The test system of data set [4] is patients with type 2 diabetes. As to conditions: recent meta-analysis; cited from earlier work.
For data set [5], the system named is subtotally nephrectomized (SNx) rats. Put plainly: Renal function (blood pressure, urine protein excretion, GFR). Type of data set: in vivo, rat. As to conditions: seven weeks treatment; for GFR: FITC-inulin clearance.
Excerpt: as §1
For estimation of urine protein excretion, rats were individually housed in metabolic cages for 24 h with free access to tap water and standard diet. Urine protein was measured with the benzethonium chloride method. Urinary excretion of markers of renal injury was determined using Rat KidneyMAP v1.0 (Myriad RBM, Austin, Tex.) and expressed as the ratio to urine creatinine determined by autoanalyzer. Glomerular filtration rate (GFR) was determined by FITC-inulin clearance, as previously described.

A short description of data set [6]: Metabolic parameters (HbA1c, active GLP-1). Type of data set: in vivo, rat. As to conditions: seven weeks; for plasma active GLP-1 levels: both sham and SNx rats, linagliptin 1.5 mg/kg/day or sitagliptin 20 mg/kg/day; for HbA1c: sham and SNx rats, linagliptin 1.5 mg/kg/day or sitagliptin 20 mg/kg/day oral gavage.
Excerpt: as §1
Blood glucose was measured with Accu-check Advantage (Roche, Mississauga, Ontario). HbA1c was measured using A1cNow+ (Bayer, Sunnyvale, Calif.). Active GLP-1 was determined using active GLP-1 (v2) kit (Meso Scale Discovery, Rockville, Md.).
Sham and SNx rats treated with vehicle, linagliptin and sitagliptin. Heart weights and kidney weights were increased in SNx rats relative to sham. HbA1c was unchanged in all treatment groups.

The test system of data set [7] is sham and subtotally nephrectomized (SNx) rats. Put plainly: Renal structure (glomerulosclerosis index, JG-12 and collagen IV immunohistochemistry). The format is in vivo, rat. As to conditions: either sham or SNx rats; seven weeks treatment.
Excerpt: as §1
A minimum of 50 glomeruli were examined in PAS-stained kidney sections from each rat. […] Glomerulosclerosis was defined as basement membrane thickening, mesangial hypertrophy and capillary occlusion. A glomerulosclerosis index (GSI) was then calculated using the formula:
[formula] Where Fi is the percentage of glomeruli in the rat kidney with a given score (i).
Immunohistochemistry for glomerular capillary density and tubulointerstitial collagen IV Immunohistochemistry of kidney tissue was performed as previously described with antibodies in the following concentrations: JG-12 1:1000 (Bender Medsystems GbdH, Vienna, Austria) and collagen IV 1:100 (Southern Biotech). Kidney sections were scanned with the Aperio ScanScope system and analysed with ImageScope, as already described. Glomerular endothelial (JG-12) immunostaining was determined in 30 glomerular profiles from each rat kidney section. For estimation of tubulointerstitial collagen IV, the proportional area of positive immunostaining (excluding glomeruli) was determined in 10 randomly selected cortical fields (×100 magnification).

The test system of data set [8] is subtotally nephrectomized (SNx) rats. Description: Cardiac catheterization, pressure volume loops (cardiac function). The format is in vivo, rat. As to conditions: in comparison to vehicle-treated SNx rats, linagliptin 1.5 mg/kg/day or sitagliptin 20 mg/kg/day, seven weeks.
Excerpt: as §1
Cardiac catheterization was performed as previously published. Briefly, rats were anesthetized (2% isoflurane), placed on a warming pad (37 °C), intubated and ventilated using positive pressure. The right internal carotid artery was ligated cranially and a 2F miniaturized combined conductance catheter-micromanometer (Model SPR-838, Millar Instruments, Houston, Tex.) was inserted into the carotid artery and advanced into the left ventricle until stable pressure volume (PV) loops were obtained. […] All PV loops were obtained with the ventilator turned off for 5-10 seconds and the animal apneic. […] A range of functional parameters were then calculated using the pressure conductance data (Millar analysis software PVAN 3.4).

For data set [9] the test system is unchanged. Description: Cardiac gene expression (real time PCR). The format is in vivo, rat. As to conditions: SNx rats vs vehicle-treated SNx; seven weeks treatment. An excerpt: Briefly, animals were anesthetized with 2.5% inhaled isoflurane, the right kidney was removed via subcapsular nephrectomy and infarction of approximately two thirds of the left kidney was achieved via selective ligation of two out of the three or four branches of the left renal artery. Sham surgery consisted of laparotomy and manipulation of both kidneys before wound closure. Rats were followed for eight weeks after surgery. […] All rats were housed in a stable environment and allowed free access to Reverse Osmosis water and standard rat chow. RNA was isolated from homogenized rat heart tissue using TRIzol reagent (Life Technologies, Grand Island, N.Y.). Total RNA (4 μg) was treated with RQ1 DNase (1U/μl) (Promega, Madison, Wis.). DNase treated RNA (4 μg) was reverse-transcribed in a final volume of 25 μl using 0.5 μl AMV-RT (Roche Diagnostics, Laval, Quebec) in the manufacturer's buffer containing 1 mmol/L dNTPs, 0.5 μl RNase inhibitor (Roche) and 2 μg random hexamers (GE Healthcare Life Sciences, Baie d'Urfe, Quebec). […]
A general note: In qPCR the cycle at which signal appears reflects the starting amount.

`Cn1c(=O)cc(N2CCC[C@@H](N)C2)n(Cc2ccccc2C#N)c1=O` [alogliptin]: in [1], the route of clearance result is “cleared in the urine”.

On to `CC#CCn1c(N2CCC[C@@H](N)C2)nc2c1c(=O)n(Cc1nc(C)c3ccccc3n1)c(=O)n2C` [linagliptin, 1-[(4-methyl-quinazolin-2-yl)methyl]-3-methyl-7-(2-butyn-1-yl)-8-(3-(R)-amino-piperidin-1-yl)-xanthine], for which the “cardiac collagen I protein” value in data set [2] is recorded as “attenuation in the overexpression”. Besides, the “cardiomyocyte size determined in H&E stained sections” value in data set [3] is “neither cardiomyocyte size determined in H&E stained sections (FIGS. 2C1 and 2C2) nor α-MHC:β-MHC ratio were changed”. The albuminuria entry in data set [4] is recorded as “reduction in albuminuria”. In data set [5], the GFR result is on record as “neither linagliptin nor sitagliptin significantly affected”, the blood pressure result is listed as “neither linagliptin nor sitagliptin significantly affected” and the proteinuria entry is “neither linagliptin nor sitagliptin significantly affected”. For the same compound, the route of clearance entry in [1] is “secreted via the bile”. In addition, in [6], the “plasma active GLP-1 levels” value is listed as “similarly increased” and the HbA1c entry is “unchanged”. For the same compound, in data set [7], the “cortical tubulointerstitial collagen IV immunostaining” value is given as “None of these markers of renal structural injury were affected” and the “glomerular capillary density (JG-12 immunostaining)” value was “None of these markers of renal structural injury were affected”. In addition, the “end diastolic pressure volume relationship (EDPVR)” value in [8] is recorded as “significantly lower”. In data set [9], the “cardiac collagen I mRNA” value was “attenuation in the overexpression”.

Consider `N#C[C@@H]1C[C@@H]2C[C@@H]2N1C(=O)[C@@H](N)C12CC3CC(CC(O)(C3)C1)C2` [saxagliptin], for which the route of clearance result in [1] is given as “cleared in the urine”.

`N[C@@H](CC(=O)N1CCn2c(nnc2C(F)(F)F)C1)Cc1cc(F)c(F)cc1F` [sitagliptin]: the “cardiac collagen I protein” value in data set [2] is reported as “attenuation in the overexpression”. In addition, in [3], the “cardiomyocyte size determined in H&E stained sections” value was “neither cardiomyocyte size determined in H&E stained sections (FIGS. 2C1 and 2C2) nor α-MHC:β-MHC ratio were changed”. Also, in data set [5], the GFR result is given as “neither linagliptin nor sitagliptin significantly affected”, the blood pressure result was “neither linagliptin nor sitagliptin significantly affected” and the proteinuria result is listed as “neither linagliptin nor sitagliptin significantly affected”. Further, the route of clearance entry in [1] is recorded as “cleared in the urine”. Also, in data set [6], the “plasma active GLP-1 levels” value is reported as “similarly increased” and the HbA1c entry is “unchanged”. In data set [7], the “cortical tubulointerstitial collagen IV immunostaining” value is on record as “None of these markers of renal structural injury were affected” and the “glomerular capillary density (JG-12 immunostaining)” value is “None of these markers of renal structural injury were affected”. Further, the “end diastolic pressure volume relationship (EDPVR)” value in data set [8] was “significantly lower”. Besides, the “cardiac collagen I mRNA” value in [9] is “attenuation in the overexpression”.

The record behind these values is patent US9526728B2, “Medical use of a DPP-4 inhibitor” (Boehringer Ingelheim International GmbH, priority 2014, dated 2016).
